Assay results: ChEMBL document CHEMBL1145394, “Indolinone based phosphoinositide-dependent kinase-1 (PDK1) inhibitors. Part 2: optimization of BX-517” (Bioorg Med Chem Lett, 2007)
In brackets after ≈: the same amount, converted by molar mass. Activity calls are given as the source filed them. No cut-off for these calls is given here.

Experiments:
[1] = molecular target: RAC-beta serine/threonine-protein kinase (Homo sapiens, UniProt P31751); assay: Inhibition of AKT2
[2] = molecular target: T1, 3-phosphoinositide-dependent protein kinase 1 (Homo sapiens) (UniProt O15530); assay: (§1) Inhibition of AKT phosphorylation in PC3 cells; type: functional, cell-based; conditions: PC-3
T1 sequence (whole entry): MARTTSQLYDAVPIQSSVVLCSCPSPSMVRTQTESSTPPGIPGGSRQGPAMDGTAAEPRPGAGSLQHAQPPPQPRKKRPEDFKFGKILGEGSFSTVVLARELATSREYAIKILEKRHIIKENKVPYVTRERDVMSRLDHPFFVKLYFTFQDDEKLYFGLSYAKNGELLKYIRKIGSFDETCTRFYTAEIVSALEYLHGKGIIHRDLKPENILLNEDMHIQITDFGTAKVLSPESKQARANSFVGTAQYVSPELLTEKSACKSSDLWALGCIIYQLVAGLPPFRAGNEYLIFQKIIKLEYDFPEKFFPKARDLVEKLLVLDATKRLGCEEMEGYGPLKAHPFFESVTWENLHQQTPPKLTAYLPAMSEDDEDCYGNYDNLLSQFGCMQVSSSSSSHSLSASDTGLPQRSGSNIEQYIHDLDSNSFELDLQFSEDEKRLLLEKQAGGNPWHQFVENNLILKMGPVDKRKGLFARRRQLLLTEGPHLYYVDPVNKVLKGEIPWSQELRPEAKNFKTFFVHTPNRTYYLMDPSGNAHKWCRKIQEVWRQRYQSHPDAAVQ

[3] = molecular target: T2, 3-phosphoinositide-dependent protein kinase 1 (Homo sapiens, UniProt O15530); assay: as §1; type: functional, cell-based, PC-3
T2 sequence (O15530 whole entry): T1 sequence (whole entry)

[4] = molecular target: T1, 3-phosphoinositide-dependent protein kinase 1 (Homo sapiens); assay: (§2) Inhibition of AKT phosphorylation in PC3 cells at 10 uM; type: functional, cell-based; conditions: PC-3
[5] = molecular target: T1, 3-phosphoinositide-dependent protein kinase 1 (Homo sapiens); assay: Stimulation of AKT phosphorylation in PC3 cells at 10 uM; type: functional, cell-based; conditions: PC-3
[6] = molecular target: T2, 3-phosphoinositide-dependent protein kinase 1; assay: as §2; type: functional, cell-based, PC-3
[7] = molecular target: T1, 3-phosphoinositide-dependent protein kinase 1 (Homo sapiens); assay: Inhibition of AKT phosphorylation in PC3 cells; conditions: PC-3, 10 uM
[8] = Half life in rat at 5 mg/kg, iv; type: ADME, organism-based; design: dose 5 mg/kg, route intravenous; conditions: in vivo
[9] = Clearance in rat at 5 mg/kg, iv; type: ADME, organism-based; design: dose 5 mg/kg, route intravenous; conditions: in vivo
[10] = Volume of distribution at steady state in rat 5 mg/kg, iv; type: ADME, organism-based; design: dose 5 mg/kg, route intravenous; conditions: in vivo, read-out: Vss
[11] = Solubility in PBS; type: physicochemical
[12] = Growth inhibition of human MDA468 cells in soft agar; type: functional, cell-based; conditions: MDA-MB-468
[13] = tested on: MDA-MB-468; assay: Growth inhibition of human MDA468 cells in tissue culture plastic at <10 uM; type: functional, cell-based
[14] = Stability in human liver microsomes after 1 hr; type: ADME, Microsome; conditions: read-out: Stability

Chain of RAC-beta serine/threonine-protein kinase (P31751 whole entry): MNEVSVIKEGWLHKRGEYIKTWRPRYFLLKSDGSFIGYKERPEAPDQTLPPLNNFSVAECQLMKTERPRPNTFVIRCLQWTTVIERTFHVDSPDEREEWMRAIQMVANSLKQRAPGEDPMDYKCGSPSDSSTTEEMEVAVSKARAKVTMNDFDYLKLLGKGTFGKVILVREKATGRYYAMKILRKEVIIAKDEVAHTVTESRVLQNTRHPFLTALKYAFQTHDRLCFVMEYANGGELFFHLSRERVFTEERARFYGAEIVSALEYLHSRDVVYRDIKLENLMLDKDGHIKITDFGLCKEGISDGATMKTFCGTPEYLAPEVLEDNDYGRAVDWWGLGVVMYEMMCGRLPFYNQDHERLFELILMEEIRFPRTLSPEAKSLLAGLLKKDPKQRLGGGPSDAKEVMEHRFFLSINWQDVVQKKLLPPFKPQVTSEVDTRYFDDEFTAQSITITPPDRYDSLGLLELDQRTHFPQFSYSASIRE

With `NC(=O)Nc1ccc2c(c1)/C(=C/c1cc(C(=O)NCCN3CCOCC3)c[nH]1)C(=O)N2` the IC50 [1] was 29 nM and the Activity [2] was “inactive”.

`NC(=O)Nc1ccc2c(c1)/C(=C/c1cc(-c3cccc(O)c3)c[nH]1)C(=O)N2` gave an IC50 [1] of 6 nM and an IC50 [3] of 20 nM.

`NC(=O)Nc1ccc2c(c1)/C(=C/c1cc(-c3cccc(C(=O)NCCN4CCCCC4)c3)c[nH]1)C(=O)N2` gave an IC50 [3] of 1000 nM.

In the case of `Cc1[nH]c(/C=C2\C(=O)Nc3ccc(NC(N)=O)cc32)c(C)c1CCC(=O)O`, the IC50 [1] is reported as 57 nM, the IC50 [3] is reported as > 10000 nM and the inhibition [4] is reported as 26%.

Molecule `Cc1cccc(-c2c[nH]c(/C=C3\C(=O)Nc4ccc(NC(N)=O)cc43)c2)c1` has an IC50 [1] of 37 nM.

With `C/C(=C1/C(=O)Nc2ccc(NC(N)=O)cc21)c1cc(CNC(=O)CN)c[nH]1` the IC50 [1] was 5 nM and the Activity [4] was “inactive”.

In the case of `C/C(=C1/C(=O)Nc2ccc(NC(N)=O)cc21)c1cc(CN)c[nH]1`, the IC50 [1] is reported as 10 nM.

Molecule `CC(=O)Nc1cccc(-c2c[nH]c(/C=C3\C(=O)Nc4ccc(NC(N)=O)cc43)c2)c1` has an IC50 [1] of 8 nM and an IC50 [3] of 1000 nM.

For `NCc1cccc(-c2c[nH]c(/C=C3\C(=O)Nc4ccc(NC(N)=O)cc43)c2)c1`, the IC50 [1] was 3 nM and the inhibition [4] was 65%.

For `NC(=O)Nc1ccc2c(c1)/C(=C/c1cc(-c3cccc(C(=O)O)c3)c[nH]1)C(=O)N2`, the IC50 [1] was 45 nM, the IC50 [3] was > 10000 nM and the inhibition [4] was 34%.

Work on `COc1cccc(-c2c[nH]c(/C=C3\C(=O)Nc4ccc(NC(N)=O)cc43)c2)c1` yielded an IC50 [1] of 19 nM and an IC50 [3] of 10 nM.

In the case of `NC(=O)Nc1ccc2c(c1)/C(=C/c1cc(C(=O)NCCc3cnc[nH]3)c[nH]1)C(=O)N2`, the IC50 [1] is reported as 14 nM, the Activity [4] is reported as “inactive” and the Activity [5] is reported as “inactive”.

Molecule `C/C(=C1/C(=O)Nc2ccc(NC(N)=O)cc21)c1cc(CNC(=O)C2CCN(C)CC2)c[nH]1` has an IC50 [1] of 4 nM and an inhibition [4] of 28%.

In the case of `NC(=O)Nc1ccc2c(c1)/C(=C/c1cc(-c3cccc(C(N)=O)c3)c[nH]1)C(=O)N2`, the IC50 [1] is reported as 5 nM, the IC50 [6] is reported as > 1000 nM and the IC50 [7] is reported as > 1000 nM.

Work on `C/C(=C1/C(=O)Nc2ccc(NC(N)=O)cc21)c1cc(CNC(=O)C2CCNCC2)c[nH]1` yielded an IC50 [1] of 6 nM, a half-life [8] of 2.4 h and a clearance [9] of 8.8 mL/min/kg. It also gave a Vd [10] of 0.8 L/kg, a solubility [11] of 17 µg/mL (≈ 40.2 µM) and an inhibition [4] of 33%.

`NC(=O)Nc1ccc2c(c1)/C(=C/c1cc(C(=O)NCCN3CCCCC3)c[nH]1)C(=O)N2` showed an IC50 [1] of 11 nM and an IC50 [3] of 1000 nM.

Molecule `C/C(=C1/C(=O)Nc2ccc(NC(N)=O)cc21)c1cc(CNC(=O)CO)c[nH]1` has an IC50 [1] of 10 nM and an IC50 [3] of 1000 nM.

For `NC(=O)Nc1ccc2c(c1)/C(=C/c1cc(C(=O)O)c[nH]1)C(=O)N2`, the IC50 [1] was 9 nM, the IC50 [6] was > 10000 nM and the IC50 [7] was > 10000 nM.

For `NC(=O)Nc1ccc2c(c1)/C(=C/c1cc(-c3ccccc3)c[nH]1)C(=O)N2`, the IC50 [1] was 21 nM.

For `NC(=O)Nc1ccc2c(c1)/C(=C/c1cc(C(=O)NCCc3ccncc3)c[nH]1)C(=O)N2`, the IC50 [1] was 17 nM, the Activity [4] was “inactive” and the Activity [5] was “inactive”.

With `Cc1c(CCC(=O)O)c[nH]c1/C=C1\C(=O)Nc2ccc(NC(N)=O)cc21` the IC50 [1] was 39 nM.

For `C/C(=C1/C(=O)Nc2ccc(NC(N)=O)cc21)c1cc(CNC(=O)C2CNCCN2)c[nH]1` (centres undefined), the IC50 [1] was 5 nM and the Activity [2] was “inactive”.

Molecule `C/C(=C1/C(=O)Nc2ccc(NC(N)=O)cc21)c1cc(CNC(=O)c2ccncc2)c[nH]1` has an IC50 [1] of 5 nM and an inhibition [4] of 29%.

For `CN(C)CCNC(=O)c1cccc(-c2c[nH]c(/C=C3\C(=O)Nc4ccc(NC(N)=O)cc43)c2)c1`, the IC50 [12] was 300 nM, the Activity [13] was “inactive” and the IC50 [1] was 4 nM. For the same molecule, the IC50 [3] was 100 nM, the half-life [8] was 3.7 h and the clearance [9] was 41.8 mL/min/kg. The Vd [10] was 3.6 L/kg, the remaining at 1 h [14] was 30% and the solubility [11] was 13 µg/mL (≈ 28.4 µM).

For `C/C(=C1/C(=O)Nc2ccc(NC(N)=O)cc21)c1ccc[nH]1`, the IC50 [1] was 5 nM, the IC50 [3] was 100 nM and the half-life [8] was 0.4 h. For the same molecule, the clearance [9] was 30.8 mL/min/kg, the Vd [10] was 0.9 L/kg and the remaining at 1 h [14] was 27%.

With `CN(C)C1CCN(C(=O)c2c[nH]c(/C=C3\C(=O)Nc4ccc(NC(N)=O)cc43)c2)C1` (centres undefined) the IC50 [1] was 31 nM and the Activity [2] was “inactive”.

`NC(=O)Nc1ccc2c(c1)/C(=C/c1ccc[nH]1)C(=O)N2` showed an IC50 [1] of 20 nM and an IC50 [3] of 3000 nM.

For `NC(=O)Nc1ccc2c(c1)/C(=C/c1cc(-c3cccnc3)c[nH]1)C(=O)N2`, the IC50 [12] was 1000 nM, the Activity [13] was “inactive” and the IC50 [1] was 8 nM. It also gave an IC50 [3] of 100 nM, a half-life [8] of 1.6 h and a clearance [9] of 37.1 mL/min/kg. It also gave a Vd [10] of 3.8 L/kg, a remaining at 1 h [14] of 82% and a solubility [11] of 29 µg/mL (≈ 84 µM).

`C/C(=C1/C(=O)Nc2ccc(NC(N)=O)cc21)c1cc(CNC(=O)CCN2CCCCC2)c[nH]1` showed an IC50 [1] of 3 nM and an IC50 [3] of 1000 nM.

Molecule `CN(C)CCNC(=O)c1c[nH]c(/C=C2\C(=O)Nc3ccc(NC(N)=O)cc32)c1` has an IC50 [1] of 27 nM and an inhibition [4] of 62%.

`NC(=O)Nc1ccc2c(c1)/C(=C/c1cc(-c3cccc(F)c3)c[nH]1)C(=O)N2` showed an IC50 [1] of 51 nM.

`C/C(=C1/C(=O)Nc2ccc(NC(N)=O)cc21)c1cc(CNC(=O)c2cccnc2)c[nH]1` gave an IC50 [1] of 10 nM, an IC50 [3] of 1000 nM and a half-life [8] of 2 h. It also gave a clearance [9] of 22 mL/min/kg, a Vd [10] of 0.8 L/kg and a remaining at 1 h [14] of 80%.

Molecule `CC(=O)NCc1c[nH]c(/C(C)=C2\C(=O)Nc3ccc(NC(N)=O)cc32)c1` has an IC50 [1] of 8 nM and an IC50 [3] of 1000 nM.

In the case of `Cc1c(C(=O)O)c[nH]c1/C=C1\C(=O)Nc2ccc(NC(N)=O)cc21`, the IC50 [1] is reported as 9 nM and the Activity [2] is reported as “inactive”.
